Results: the METLIN SMRT retention time set (Domingo-Almenara et al. 2019)

Assay: gradient 5% acetonitrile 3 min, to 50% in 2 min, to 85% in 15 min, held 3 min, 100 µL/min
Details: column: Zorbax Extend-C18 2.1 x 50 mm; eluents: water / acetonitrile, 0.1% formic acid
Method in brief: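 Standards, all pure, were combined into mixtures of ~100 molecules and run at 100 μL/min on a Zorbax Extend-C18 column (2.1 × 50 mm, 1.8 μm) with water and acetonitrile, each containing 0.1% formic acid. A coupled quadrupole time-of-flight mass spectrometer operated in positive and negative ionization mode. Retention time values come from computationally picked adduct peaks, each inspected manually.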

Row | RP-LC retention time [s] | Structure (SMILES)
1 | 626 | CC(=O)Nc1ccc(CCc2nc3ccc(C(=O)NC(C)Cc4ccco4)cc3[nH]2)cc1 (configuration not stated)
2 | 788 | CN1C(=O)c2ccccc2Oc2ccc(C(=O)NCc3ccco3)cc21
3 | 882 | Cn1c(=O)c(-c2ccc(C(=O)NC3CCCCC3)cc2)nc2cccnc21
4 | 668 | O=C(NCc1ccc(F)cc1F)C1CCN(c2cnc(N3CCCC3)nc2)CC1
5 | 808 | COc1ccc(NC(=O)Cn2c(=O)n(-c3ccccc3)c3ncccc32)c(OC)c1
6 | 627 | O=C(CN1C(=O)CCSc2ccccc21)Nc1ccc2c(c1)OCO2
7 | 982 | CCOc1ccc(-n2c(=O)c3sccc3n(Cc3nc(-c4ccc(F)cc4)no3)c2=O)cc1
8 | 1070 | COc1ccc(OC)c(CNC(=O)C2CCCN(c3nccnc3Sc3ccc(C)cc3)C2)c1 (configuration not stated)
9 | 760 | O=C(C1CC(=O)N(c2ccc3c(c2)CCN3C(=O)C2CCC2)C1)N1CCCCC1 (configuration not stated)
10 | 832 | COc1ccc(-c2c(C)noc2NC(C)=O)cc1S(=O)(=O)Nc1ccc(C)cc1Br
11 | 575 | N#Cc1ccc(CN2CCC(F)(F)C(COCc3cccnc3)C2)cc1 (configuration not stated)
12 | 800 | COc1ccc(NC(=O)c2c(O)c3cccnc3n(-c3ccccc3)c2=O)cc1OC
13 | 610 | COc1cc(NC(=O)NCCc2c(C)nn(C)c2C)cc(OC)c1OC
14 | 628 | CCCCC(=O)Nc1cnc(N(CC)CC(=O)C(C)(C)C)c(C(=O)O)c1
15 | 716 | CN(CC1(C)CCOCC1)C(=O)c1ccc(C#N)cc1
16 | 567 | COCCNC(=O)C1CCCN(c2cc(=O)n(C)c(=O)n2C)C1 (configuration not stated)
17 | 795 | O=C(C1CCCN(c2nc3cccnc3s2)C1)N1CCCCCC1 (configuration not stated)
18 | 1090 | CCOc1nc2ccccc2nc1N1CCCC(C(=O)NCc2ccccc2)C1 (configuration not stated)
19 | 608 | CC(C)n1cnnc1CC1CN(C(=O)Nc2ccccc2F)C1
20 | 667 | COc1ccc(NC(=O)Cn2cc(C(=O)N3CCCC3)c(=O)c3ccc(C)nc32)cc1
21 | 791 | CCc1ccccc1NC(=O)N1CCC2(CC1)NC(=O)c1cc(F)ccc1N2C
22 | 988 | CN(C)S(=O)(=O)c1ccc2c(c1)N(CC(=O)Nc1ccc(Cl)cc1)C(=O)C1CCCCN21 (configuration not stated)

Row | RP-LC retention time [s] | Structure (SMILES)
23 | 640 | COc1ccc(S(=O)(=O)N2C[C@@H](F)C[C@H]2C(=O)N2CCOCC2)cc1OC
24 | 585 | Cc1nc2cccnc2n1CCN1CCN(C(=O)Nc2ccc(F)cc2F)CC1
25 | 804 | Cc1ccc(CN2CCCn3nc(C(=O)NCc4ccco4)cc3C2=O)cc1
26 | 929 | COc1ccc(-n2ccn3cc(-c4ccc(F)cc4F)nc3c2=O)cc1Cl
27 | 602 | O=C(Nc1ccc(N2CCOCC2)cc1)C1CCN(c2cncnc2N2CCCC2)CC1
28 | 692 | CCOC(=O)c1cnc(N2CCN(c3ccccn3)CC2)c2ccccc12
29 | 678 | O=C(NCCn1nc(-c2cccs2)ccc1=O)c1ccc(=O)n(Cc2ccccc2)n1
30 | 900 | O=C(c1cccc(Cl)c1)N1CCN(C(=O)c2nnn3c2COC(c2ccccc2)C3)CC1 (configuration not stated)
31 | 603 | O=C(NCCN1CCCC1)C1CCN(c2nc(-c3ccc(Cl)cc3)no2)CC1
32 | 581 | Cc1nc2cc(N3CCCC(C(=O)N4CCN(c5ccccn5)CC4)C3)cnc2nc1C (configuration not stated)
33 | 825 | NC(=O)c1oc2ccccc2c1NC(=O)C1CCCCN1S(=O)(=O)c1cccs1 (configuration not stated)
34 | 1020 | CC(C)CNC(=O)c1cn(-c2ccc(-c3nc(C(C)(C)C)no3)cn2)cn1
35 | 740 | CCOC1CCN(C(=O)NC2CCCCC2)CC1
36 | 967 | CC1=NS(=O)(=O)N(C)C=C1C(=O)OCCc1ccccc1
37 | 1210 | COc1cccc(NC(=O)CC(=O)Nc2ccc3nc4n(c(=O)c3c2)CCCCC4)c1
38 | 808 | Cc1ccc(C(=O)Nc2nccnc2C(=O)NCC2CCCO2)cc1 (configuration not stated)
39 | 912 | Cc1ccc(CNC(=O)C2CCN(S(C)(=O)=O)c3cc(C)ccc3O2)cc1 (configuration not stated)
40 | 651 | Cc1oc(-c2[nH]ncc2C(=O)N2CCCC2)cc1S(=O)(=O)NCc1ccco1
41 | 792 | CCCOCCOC(=O)C1=C(C)NC2=C(C(=O)CCC2)C1c1ccc(OC)cc1OC (configuration not stated)
42 | 952 | CC1CCN(C(=O)C2=NN(CC(=O)OC(C)C)c3ccccc3S2(=O)=O)CC1
43 | 549 | O=C(NCc1ccccn1)c1c[nH]c2ncccc12
44 | 1250 | COc1cc(NC(=O)c2c(O)c3cccnc3n(-c3ccccc3)c2=O)cc(OC)c1

Row | RP-LC retention time [s] | Structure (SMILES)
45 | 560 | C/C=C/c1ccc(OCC(O)CN2CCN(C)CC2)c(OC)c1 (configuration not stated)
46 | 624 | COC(=O)CNC(=O)Nc1ccc2nc(-c3ccc(F)cc3)cc(OC)c2c1
47 | 800 | O=C(Nc1ccc2c(c1)C(=O)N1CCCCC1CCO2)c1ccc2nsnc2c1 (configuration not stated)
48 | 724 | Cn1nc2c(c1NC(=O)c1ccc(Cl)s1)CCC2
49 | 985 | CC(C)c1nnc(-c2ccc(S(=O)(=O)NC3CCCCCC3)o2)o1
50 | 1020 | CS(=O)(=O)N1CCC(C(=O)NCCC2=CCCCC2)Oc2ccc(Cl)cc21 (configuration not stated)
51 | 766 | O=C(CN1C(=O)c2cccnc2Oc2ccccc21)NCCc1c[nH]c2ccccc12
52 | 732 | COCCN1C(=O)[C@H]2CN(C(=O)Nc3ccccc3)C[C@H]2C1=O
53 | 738 | O=C(Nc1cccn2cnnc12)c1cccc(C(F)(F)F)c1
54 | 630 | Cc1csc(-c2cc(S(=O)(=O)NCCN(C)C)cn2CC(=O)N2CCCCC2)n1
55 | 661 | Cc1ccc(CNC(=O)Cn2c(N3CCCCC3)nc(C)cc2=O)cc1
56 | 782 | COc1ccc(NC(=O)CN2C(=O)c3ccccc3C2=O)c2ccccc12
57 | 630 | COc1ccc(C(=O)NCC(=O)Nc2nc3ccccc3[nH]2)c(C)c1
58 | 818 | Cc1cccc(NC(=O)C2CCN(S(=O)(=O)c3cc(C(=O)N4CCCC4)cs3)CC2)c1C
59 | 639 | O=C(NCCn1cnc2cc(C(=O)N3CCCC3)ccc21)Nc1ccc(Br)cc1F
60 | 630 | Cc1nc(C)n(CC(=O)Nc2ccc(F)cc2)c(=O)c1C
61 | 626 | COCCCNC(=O)C1CCN(C(=O)c2ncn3c2COC(c2ccc(F)cc2)C3)CC1 (configuration not stated)
62 | 824 | Cn1cccc1C(=O)C(=O)N1CCN(C(c2ccccc2)c2ccccc2)CC1
63 | 912 | CC(C)CCNC(=O)c1ccc2c(=O)n(-c3ccc(F)cc3)c(N3CCCC3)nc2c1
64 | 1110 | O=S(=O)(NCc1cccs1)c1cc(-c2noc(C3CCCC3)n2)cs1
65 | 616 | CC(C)S(=O)(=O)c1ccc(Cc2nnc(NC(=O)C3=COCCO3)o2)cc1
66 | 947 | CCOC(=O)/C=C/c1ccc(C(=O)OCC)[nH]1

Row | Structure (SMILES) | RP-LC retention time [s]
67 | CN1Cc2ccccc2-n2ccnc2C12CCN(C(=O)c1cccc(F)c1)CC2 | 614
